Results taken from patent US6489490B1, “2-(2-chlorophenyl)-3,4-dihydro-2h-pyrrol derivatives” (Bayer Aktiengesellschaft, priority 1998, dated 2002).
Read-outs that look alike come from different tables or passages of the source.

Key:
[1] = log P determined by HPLC analysis; format: physicochemical
Description: log P*=[…] logarithm to base 10 of the […] partition coefficient, determined by HPLC analysis on 125×4.0 mm Kromasil 120 C 18 (5 μm), using water/acetonitrile as mobile phase; flow rate: 1.5 ml/min.

[2] = tested on: caterpillars of the cotton bollworm (Heliothis armigera); test: Heliothis armigera test; format: in vivo; conditions: concentration of active compound 0.004%, after 6 days, dipped soybean shoots
Description: (§1) Solvent: 7 parts by weight of dimethylformamide
(§2) Emulsifier: 1 part by weight of alkylaryl polyglycol ether
(§3) To produce a suitable preparation of active compound, 1 part by weight of active compound is mixed with the stated amounts of solvent and emulsifier, and the concentrate is diluted with emusifier-containing water to the desired concentration.
Soybean shoots (Glycine max) are treated by being dipped into the preparation of active compound of the desired concentration and are populated with caterpillars of the cotton bollworm (Heliothis armigera) while the leaves are still moist.
(§4) After the desired period of time, the kill in % is determined. 100% means that all caterpillars have been killed; 0% means that none of the caterpillars have been killed.

[3] = tested on: caterpillars of the diamond-back moth (Plutella xylostella); test: Plutella test; format: in vivo; conditions: concentration of active compound 0.004%, after 6 days, dipped cabbage leaves
Description: as §1, §2, §3
Cabbage leaves (Brassica oleracea) are treated by being dipped into the preparation of active compound of the desired concentration and are populated with caterpillars of the diamond-back moth (Plutella xylostella) while the leaves are still moist.
as §4

[4] = tested on: caterpillars of the army-worm (Spodoptera frugiperda); test: Spodoptera frugiperda test; format: in vivo; conditions: concentration of active compound at most 0.1%, after 6 days, dipped cabbage leaves
Description: Spodoptera frugiperda Test
as §1, §2, §3
Cabbage leaves (Brassica oleracea) are treated by being dipped into the preparation of active compound of the desired concentration and are populated with caterpillars of the army-worm (Spodoptera frugiperda) while the leaves are still moist.
as §4

[5] = tested on: all stages of the greenhouse red spider mite (Tetranychus urticae); test: Tetranychus test (OP-resistant/dip treatment); format: in vivo; conditions: concentration of active compound at most 0.1%, after 6 days, dipped bean plants
Description: Tetranychus Test (OP-resistant/dip Treatment)
as §1, §2
To produce a suitable preparation of active compound, 1 part by weight of active compound is mixed with the stated amounts of solvent and emulsifier, and the concentrate is diluted with emulsifier-containing water to the desired concentration.
Bean plants (Phaseolus vulgaris) which are heavily infested by all stages of the greenhouse red spider mite (Tetranychus urticae) are dipped into a preparation of the active compound of the desired concentration.
After the desired period of time, the kill in % is determined. 100% means that all spider mites have been killed; 0% means that none of the spider mites have been killed.

[6] = tested on: larvae of the mustard beetle (Phaedon cochleariae); test: Phaedon larvae test; format: in vivo; conditions: concentration of active compound 0.004%, after 6 days, dipped cabbage leaves
Description: Phaedon Larvae Test Solvent: 7 parts by weight of dimethylformamide Emulsifier: 1 part by weight of alkylaryl polyglycol ether To produce a suitable preparation of active compound, 1 part by weight of active compound is mixed with the stated amounts of solvent and emulsifier, and the concentrate is diluted with emusifier-containing water to the desired concentration. Cabbage leaves (Brassica oleracea) are treated by being dipped into the preparation of active compound of the desired concentration and are populated with larvae of the mustard beetle (Phaedon cochleariae) while the leaves are still moist.

[7] = pH 2.3, HPLC, read-out: log P (pH 2.3)

O=C(c1ccccc1Cl)C1CC(c2ccccc2)N(C(=O)c2ccccc2Cl)C1=O (stereo not drawn) [Example G(II)-20, 1,3-(2-chlorobenzoyl)-5-phenyl-pyrrolidin-2-one]
chromatographic logP ([1]; pH 2.5, read-out: log P (pH 2.5)): 3.91

FC(F)(F)Oc1ccc(-c2ccc(C3CCC(c4ccccc4Cl)=N3)cc2)cc1 (stereo not drawn) [Example I-7]
kill in % [2]: 100%
kill in % [3]: 100%
kill in % [4]: 100%
kill in % [5]: 100%
kill in % [6]: 100%

Clc1ccccc1C1=NC(c2ccccc2)CC1 (stereo not drawn) [Example I-20]
kill in % [5]: 100%
log P* (pH 7.5) ([1]; pH 7.5, HPLC, Kromasil 120 C 18, water/acetonitrile): 3.6 l

FC(F)C(F)(F)Oc1ccc(-c2ccc(C3CCC(c4ccccc4Cl)=N3)cc2)cc1 (stereo not drawn) [Example I-43]
chromatographic logP [1, 7]: 4.01

CC(C)(C)OC(=O)N1C(=O)CCC1c1ccc(-c2ccc(OC(F)(F)C(F)F)cc2)cc1 (stereo not drawn) [Example IX-43]
chromatographic logP [1, 7]: 3.96

CC(C)(C)OC(=O)NC(CCC(=O)c1ccccc1Cl)c1ccc(-c2ccc(OC(F)(F)C(F)F)cc2)cc1 (stereo not drawn) [Example VIII-43]
chromatographic logP [1, 7]: 4.94

O=C1CCC(c2ccc(-c3ccc(OC(F)(F)C(F)F)cc3)cc2)N1 (stereo not drawn) [Example XI-43]
chromatographic logP [1, 7]: 2.79
